Experimental data from patent publication US10273222B2 (CELGENE QUANTICEL RESEARCH, INC., priority 2013, dated 2019).

Assays:
KDM5A and KDM5B = assay: In vitro cell-based assay: tri-methyl H3K4 immuno-blotting in ZR-75-1 cells (cellular inhibition of KDM5A/B); settings: ZR-75-1 breast cancer cells, 72 hours, tri-methylated H3K4 level; read-out: IC50 ZR-75-1 cell-MOA
Procedure: This quantitative immuno-blotting assay measures the amount tri-methylated histone H3 at amino acid Lysine number 4, a specific substrate and product of the direct enzymatic activity of the histone demethylases KDM5A and KDM5B from extracts of the ZR-75-1 breast cancer cell line.
This assay is a fluorometric immunoassay for the quantification of tri-methyl H3K4 extracted from cells treated with test compound and is used as a measure of the cellular inhibition of KDM5A/B.
Extracts were prepared containing all of the cellular histone material using detergent based lysis and sonication methods. These lysates were subsequently normalized for total protein content using a colorimetric bicinchonic acid assay (MicroBCA Pierce/Thermo Scientific). Normalized cell extracts were then subjected to typical immuno-blotting procedures using NuPage reagents (Life Technologies). Electrophoretically separated histones were then transferred and immobilized using polyvinylidene difluoride membrane (Immobilon-FL Millipore). The amount of tri-methylated lysine 4 of histone H3 was detected using an antibody specific to the tri-methylated state (Cell Signaling Technologies) and quantified on an infrared imager using a densitometry software package (Odyssey CLx, Image Studio, Li-Cor). This background subtracted densitometry value was reported as a ration of the GAPDH amount for that sample and then calculated as a percent of the DMSO treated sample. The software package XL-fit (IDBS) was then used to calculate a relative IC50 value for the dilution series of a given test compound according to the equation: fit=(D+((Vmax*(x^n))/((x^n)+(Km^n)))).

JMJD2C = JMJD2C (Homo sapiens (Human), UniProt Q9H3R0); assay: JMJD2C in vitro enzyme inhibition assay (TR-FRET); format: biochemical
Jarid1B = Jarid1B (Homo sapiens (Human), UniProt Q9UGL1); assay: Jarid1B in vitro enzyme inhibition assay (TR-FRET); format: biochemical
Procedure: This assay determines the ability of a test compound to inhibit Jarid1A, Jarid1B, JMJD2C, and JMJD2A demethylase activity.
The ability of test compounds to inhibit the activity of Jarid1B was determined in 384-well plate format under the following reaction conditions: 0.8 nM Jarid1B, 300 nM H3K4me3-biotin labeled peptide (Anaspec cat #64357), 2 μM alpha-ketoglutaric acid in assay buffer of 50 mM HEPES, pH7.3, 0.005% Brij35, 0.5 mM TCEP, 0.2 mg/ml BSA, 50 μM sodium L-ascorbate, and 2 μM ammonium iron(II) sulfate. Reaction product was determined quantitatively by TR-FRET after the addition of detection reagent Phycolink Streptavidin-allophycocyanin (Prozyme) and Europium-anti-mono- or di-methylated histone H3 lysine 4 (H3K4me1-2) antibody (PerkinElmer) in the presence of 5 mM EDTA in LANCE detection buffer (PerkinElmer) at a final concentration of 25 nM and 1 nM, respectively.
The assay reaction was initiated by the following: 2 μl of the mixture of 900 nM H3K4me3-biotin labeled peptide and 6 μM alpha-ketoglutaric acid with 2 μl of 11-point serial diluted inhibitor in 3% DMSO was added to each well of the plate, followed by the addition of 2 μl of 2.4 nM Jarid1B to initiate the reaction. The reaction mixture was incubated at room temperature for 30 minutes, and terminated by the addition of 6 μl of 5 mM EDTA in LANCE detection buffer containing 50 nM Phycolink Streptavidin-allophycocyanin and 2 nM Europium-anti-H3K4me1-2 antibody. Plates were read by EnVisionMultilabel Reader in TR-FRET mode (excitation at 320 nm, emission at 615 nm and 665 nm) after 1 hour incubation at room temperature. A ratio was calculated (665/615) for each well and fitted to determine inhibition constant (IC50).

FBXL10 = FBXL10 (Homo sapiens (Human), UniProt Q8NHM5); assay: FBXL10 in vitro enzyme inhibition assay (AlphaScreen); format: biochemical
Outline: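 AlphaScreen read-out of H3K36me1 product, detected with anti-H3K36me1 antibody plus streptavidin donor and Protein A acceptor beads (final 10 μg/ml) in 50 mM HEPES pH 7.3, 10 mM NaCl, 0.005% Brij35, 5 mM EDTA, 2 mg/ml BSA. Beads incubated 2 h to overnight at room temperature; IC50 derived from AlphaScreen signal.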

Jarid1A = Jarid1A (Homo sapiens (Human), UniProt P29375); assay: Jarid1A in vitro enzyme inhibition assay (TR-FRET); format: biochemical
Source text: The enzymatic assay of Jarid1A activity is based upon Time Resolved-Fluorescence Resonance Energy Transfer (TR-FRET) detection.

JMJD2A = JMJD2A (Homo sapiens (Human), UniProt O75164); assay: JMJD2A in vitro enzyme inhibition assay (TR-FRET); format: biochemical
JMJD2A, sequence (O75164 1-350): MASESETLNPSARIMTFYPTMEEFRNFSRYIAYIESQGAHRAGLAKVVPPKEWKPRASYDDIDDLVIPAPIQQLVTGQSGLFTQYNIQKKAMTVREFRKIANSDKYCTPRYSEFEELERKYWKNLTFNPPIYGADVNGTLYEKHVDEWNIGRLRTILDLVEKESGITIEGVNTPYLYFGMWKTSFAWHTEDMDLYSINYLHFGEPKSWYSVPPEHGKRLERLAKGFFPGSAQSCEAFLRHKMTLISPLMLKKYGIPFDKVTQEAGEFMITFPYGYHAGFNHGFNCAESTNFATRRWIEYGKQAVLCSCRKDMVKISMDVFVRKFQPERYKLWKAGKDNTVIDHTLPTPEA

JMJD2C, sequence (Q9H3R0 2-372): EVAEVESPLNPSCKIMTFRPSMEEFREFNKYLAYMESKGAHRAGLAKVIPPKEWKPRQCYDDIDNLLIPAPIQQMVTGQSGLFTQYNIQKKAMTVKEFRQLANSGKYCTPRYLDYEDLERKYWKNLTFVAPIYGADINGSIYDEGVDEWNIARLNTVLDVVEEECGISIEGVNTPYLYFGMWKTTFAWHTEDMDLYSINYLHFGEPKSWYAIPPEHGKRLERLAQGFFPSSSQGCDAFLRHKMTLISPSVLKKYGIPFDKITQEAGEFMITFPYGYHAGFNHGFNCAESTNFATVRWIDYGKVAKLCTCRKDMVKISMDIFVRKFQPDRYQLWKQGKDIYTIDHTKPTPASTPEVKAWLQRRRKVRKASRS
Jarid1B, sequence (Q9UGL1 2-751): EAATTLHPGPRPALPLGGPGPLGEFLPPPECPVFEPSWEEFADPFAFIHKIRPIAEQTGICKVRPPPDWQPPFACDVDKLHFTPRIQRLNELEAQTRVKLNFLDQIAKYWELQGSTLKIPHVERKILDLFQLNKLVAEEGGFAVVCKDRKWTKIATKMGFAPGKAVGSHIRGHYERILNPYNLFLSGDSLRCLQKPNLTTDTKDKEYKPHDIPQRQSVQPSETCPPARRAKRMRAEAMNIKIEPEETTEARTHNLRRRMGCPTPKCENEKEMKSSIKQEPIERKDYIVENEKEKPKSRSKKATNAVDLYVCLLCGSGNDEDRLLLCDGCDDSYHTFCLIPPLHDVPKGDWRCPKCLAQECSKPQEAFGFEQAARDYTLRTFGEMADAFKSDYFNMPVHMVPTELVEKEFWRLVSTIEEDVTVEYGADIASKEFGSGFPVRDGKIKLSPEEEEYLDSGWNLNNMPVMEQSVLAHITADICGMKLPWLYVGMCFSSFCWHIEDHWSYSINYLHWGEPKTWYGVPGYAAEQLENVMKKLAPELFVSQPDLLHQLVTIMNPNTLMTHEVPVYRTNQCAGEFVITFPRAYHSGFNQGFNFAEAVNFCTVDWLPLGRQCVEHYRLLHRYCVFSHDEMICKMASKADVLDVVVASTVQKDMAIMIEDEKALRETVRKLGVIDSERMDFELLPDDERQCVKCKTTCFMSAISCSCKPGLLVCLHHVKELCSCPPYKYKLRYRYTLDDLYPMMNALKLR
FBXL10, sequence (Q8NHM5 1-650): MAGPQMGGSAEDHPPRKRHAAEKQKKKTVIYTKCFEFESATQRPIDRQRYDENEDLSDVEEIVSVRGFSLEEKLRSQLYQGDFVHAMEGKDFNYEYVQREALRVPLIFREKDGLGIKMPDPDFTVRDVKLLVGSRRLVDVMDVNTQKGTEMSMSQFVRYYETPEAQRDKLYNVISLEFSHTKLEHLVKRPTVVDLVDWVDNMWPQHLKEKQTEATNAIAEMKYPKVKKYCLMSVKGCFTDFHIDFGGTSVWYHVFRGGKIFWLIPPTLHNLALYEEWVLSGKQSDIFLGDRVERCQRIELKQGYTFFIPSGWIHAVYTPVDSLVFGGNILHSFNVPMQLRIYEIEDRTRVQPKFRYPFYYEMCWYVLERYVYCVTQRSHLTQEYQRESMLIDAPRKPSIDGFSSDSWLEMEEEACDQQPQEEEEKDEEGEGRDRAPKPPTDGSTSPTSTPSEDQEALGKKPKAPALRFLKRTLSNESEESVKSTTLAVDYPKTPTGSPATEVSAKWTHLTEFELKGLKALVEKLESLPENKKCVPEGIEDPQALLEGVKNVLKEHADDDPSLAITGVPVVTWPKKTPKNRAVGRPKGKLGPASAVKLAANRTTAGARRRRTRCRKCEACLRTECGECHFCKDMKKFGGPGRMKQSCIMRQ
Jarid1A, sequence (P29375 1-1090): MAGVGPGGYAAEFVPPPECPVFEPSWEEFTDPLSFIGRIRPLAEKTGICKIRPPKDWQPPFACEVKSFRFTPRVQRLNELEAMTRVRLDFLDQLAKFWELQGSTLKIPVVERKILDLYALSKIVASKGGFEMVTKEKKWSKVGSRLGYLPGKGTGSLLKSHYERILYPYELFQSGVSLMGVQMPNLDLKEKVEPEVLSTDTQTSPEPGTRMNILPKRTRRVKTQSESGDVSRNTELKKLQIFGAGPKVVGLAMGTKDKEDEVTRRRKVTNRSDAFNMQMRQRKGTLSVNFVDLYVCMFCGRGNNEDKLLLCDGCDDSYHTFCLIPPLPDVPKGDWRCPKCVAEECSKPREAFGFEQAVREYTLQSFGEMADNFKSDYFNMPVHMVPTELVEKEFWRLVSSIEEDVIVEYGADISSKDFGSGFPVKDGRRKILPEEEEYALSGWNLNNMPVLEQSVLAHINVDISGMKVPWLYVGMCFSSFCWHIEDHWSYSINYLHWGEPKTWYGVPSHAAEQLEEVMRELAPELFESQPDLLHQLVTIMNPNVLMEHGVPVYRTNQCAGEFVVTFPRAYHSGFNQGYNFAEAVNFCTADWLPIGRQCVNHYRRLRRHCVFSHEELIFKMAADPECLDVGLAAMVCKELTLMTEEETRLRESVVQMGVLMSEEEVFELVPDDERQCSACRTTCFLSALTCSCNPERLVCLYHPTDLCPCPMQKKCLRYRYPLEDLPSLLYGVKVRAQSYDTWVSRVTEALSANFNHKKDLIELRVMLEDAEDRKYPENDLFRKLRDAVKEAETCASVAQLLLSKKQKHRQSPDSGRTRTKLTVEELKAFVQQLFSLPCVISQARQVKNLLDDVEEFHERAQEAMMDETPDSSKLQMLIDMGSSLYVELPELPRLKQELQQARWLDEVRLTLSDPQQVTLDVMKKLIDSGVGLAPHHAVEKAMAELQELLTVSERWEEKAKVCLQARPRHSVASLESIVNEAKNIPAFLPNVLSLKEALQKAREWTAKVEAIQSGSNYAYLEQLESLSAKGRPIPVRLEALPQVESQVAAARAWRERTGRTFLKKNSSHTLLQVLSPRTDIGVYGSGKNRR

| Compound | IC50 (KDM5A and KDM5B) | IC50 (JMJD2C) | IC50 (Jarid1B) | IC50 (FBXL10) | IC50 (Jarid1A) | IC50 (JMJD2A) |
| --- | --- | --- | --- | --- | --- | --- |
| CN(C)CCn1cnc(-c2cc(C(=O)O)ccn2)c1 [Example 40, 2-{1-[2-(dimethylamino)ethyl]-1H-imidazol-4-yl}pyridine-4-carboxylic acid] | 1000 to 10000 nM | ≤ 100 nM | ≤ 100 nM | – | ≤ 100 nM | – |
| Cn1cnc(-c2cc(C(=O)O)ccn2)c1-c1ccc(-n2cccn2)cc1 [Example 15, 2-{1-methyl-5-[4-(1H-pyrazol-1-yl)phenyl]-1H-imidazol-4-yl}pyridine-4-carboxylic acid] | 1000 to 10000 nM | 100 to 1000 nM | ≤ 100 nM | 100 to 1000 nM | ≤ 100 nM | – |
| Cn1cnc(-c2cc(C(=O)O)ccn2)c1-c1ccc2cc[nH]c2c1 [Example 22, 2-[5-(1H-indol-6-yl)-1-methyl-1H-imidazol-4-yl]pyridine-4-carboxylic acid] | > 10000 nM | 100 to 1000 nM | ≤ 100 nM | ≤ 100 nM | ≤ 100 nM | – |
| Cn1cnc(-c2cc(C(=O)O)ccn2)c1-c1ccc(OCC2CC2)cc1 [Example 16, 2-{5-[4-(cyclopropylmethoxy)phenyl]-1-methyl-1H-imidazol-4-yl}pyridine-4-carboxylic acid] | 1000 to 10000 nM | 100 to 1000 nM | ≤ 100 nM | 100 to 1000 nM | ≤ 100 nM | – |
| CCCn1cnc(-c2cc(C(=O)O)ccn2)c1-c1ccc(Cl)c(F)c1 [Example 35, 2-[5-(4-chloro-3-fluorophenyl)-1-propyl-1H-imidazol-4-yl]pyridine-4-carboxylic acid] | > 10000 nM | 100 to 1000 nM | ≤ 100 nM | ≤ 100 nM | ≤ 100 nM | – |
| Cn1cnc(-c2cc(C(=O)O)ccn2)c1-c1ccc(N2CCCC2)cc1 [Example 18, 2-{1-methyl-5-[4-(pyrrolidin-1-yl)phenyl]-1H-imidazol-4-yl}pyridine-4-carboxylic acid] | 1000 to 10000 nM | 100 to 1000 nM | ≤ 100 nM | – | ≤ 100 nM | – |
| Cn1cnc(-c2cc(C(=O)O)ccn2)c1-c1ccc(Cl)cc1 [Example 19, 2-[5-(4-chlorophenyl)-1-methyl-1H-imidazol-4-yl]pyridine-4-carboxylic acid] | 1000 to 10000 nM | 100 to 1000 nM | ≤ 100 nM | ≤ 100 nM | ≤ 100 nM | – |
| O=C(O)c1ccnc(-c2cn(CCNCC3CCC(F)(F)CC3)cn2)c1 [Example 72, 2-[1-[2-[(4,4-difluorocyclohexyl)methylamino]ethyl]imidazol-4-yl]pyridine-4-carboxylic acid] | 1000 to 10000 nM | ≤ 100 nM | ≤ 100 nM | ≤ 100 nM | ≤ 100 nM | – |
| CN(C)CCOCCn1cnc(-c2cc(C(=O)O)ccn2)c1 [Example 48, 2-(1-{2-[2-(dimethylamino)ethoxy]ethyl}-1H-imidazol-4-yl)pyridine-4-carboxylic acid] | – | ≤ 100 nM | ≤ 100 nM | 100 to 1000 nM | ≤ 100 nM | ≤ 100 nM |
| Cc1ccc(-c2c(-c3cc(C(=O)O)ccn3)ncn2C)cc1O [Example 3, 2-[5-(3-hydroxy-4-methylphenyl)-1-methyl-1H-imidazol-4-yl]pyridine-4-carboxylic acid] | > 10000 nM | 1000 to 10000 nM | ≤ 100 nM | 100 to 1000 nM | ≤ 100 nM | – |
| CN(CCn1cnc(-c2cc(C(=O)O)ccn2)c1)Cc1ccc(C(F)(F)F)cc1 [Example 68, 2-[1-[2-[methyl-[[4-(trifluoromethyl)phenyl]methyl]amino]ethyl]imidazol-4-yl]pyridine-4-carboxylic acid] | – | ≤ 100 nM | ≤ 100 nM | ≤ 100 nM | ≤ 100 nM | ≤ 100 nM |
| COc1ccc(-c2c(-c3cc(C(=O)O)ccn3)ncn2C)cc1 [Example 12, 2-[5-(4-methoxyphenyl)-1-methyl-1H-imidazol-4-yl]pyridine-4-carboxylic acid] | 1000 to 10000 nM | – | – | – | – | – |
| O=C(O)c1ccnc(-c2cn(CCN3CCCC3=O)cn2)c1 [Example 60, 2-{1-[2-(2-oxopyrrolidin-1-yl)ethyl]-1H-imidazol-4-yl}pyridine-4-carboxylic acid] | – | 100 to 1000 nM | ≤ 100 nM | ≤ 100 nM | ≤ 100 nM | ≤ 100 nM |

Next, values leading:

| IC50 (KDM5A and KDM5B) | IC50 (JMJD2C) | IC50 (Jarid1B) | IC50 (FBXL10) | IC50 (Jarid1A) | IC50 (JMJD2A) | Compound |
| --- | --- | --- | --- | --- | --- | --- |
| 1000 to 10000 nM | 100 to 1000 nM | ≤ 100 nM | ≤ 100 nM | ≤ 100 nM | – | O=C(O)c1ccnc(-c2cn(Cc3ccccc3)cn2)c1 [Example 100, 2-(1-benzylimidazol-4-yl)pyridine-4-carboxylic acid] |
| 1000 to 10000 nM | ≤ 100 nM | ≤ 100 nM | ≤ 100 nM | ≤ 100 nM | – | O=C(O)c1ccnc(-c2cn(CCc3ccccc3F)cn2)c1 [Example 93, 2-[1-[2-(2-fluorophenyl)ethyl]imidazol-4-yl]pyridine-4-carboxylic acid] |
| 1000 to 10000 nM | 100 to 1000 nM | ≤ 100 nM | ≤ 100 nM | ≤ 100 nM | – | CC(Cc1ccccc1)n1cnc(-c2cc(C(=O)O)ccn2)c1 (stereo not shown) [Example 106, 2-[1-(1-phenylpropan-2-yl)imidazol-4-yl]pyridine-4-carboxylic acid] |
| > 10000 nM | 100 to 1000 nM | ≤ 100 nM | ≤ 100 nM | ≤ 100 nM | – | O=C(O)c1ccnc(-c2cn(Cc3cccc(F)c3)cn2)c1 [Example 104, 2-[1-[(3-fluorophenyl)methyl]imidazol-4-yl]pyridine-4-carboxylic] |
| – | 100 to 1000 nM | ≤ 100 nM | ≤ 100 nM | ≤ 100 nM | 100 to 1000 nM | O=C(O)c1ccnc(-c2cn(CCc3cccc4ccccc34)cn2)c1 [Example 112, 2-[1-(2-naphthalen-1-ylethyl)imidazol-4-yl]pyridine-4-carboxylic acid] |
| – | 1000 to 10000 nM | ≤ 100 nM | ≤ 100 nM | 100 to 1000 nM | > 10000 nM | Cn1cnc(-c2cc(C(=O)O)ccn2)c1-c1ccc(F)cc1OCC1CC1 [Example 120, 2-[5-[2-(cyclopropylmethoxy)-4-fluorophenyl]-1-methylimidazol-4-yl]pyridine-4-carboxylic acid] |
| – | 100 to 1000 nM | ≤ 100 nM | ≤ 100 nM | ≤ 100 nM | 100 to 1000 nM | CC(C)C(c1ccccc1)n1cnc(-c2cc(C(=O)O)ccn2)c1 (stereo not shown) [Example 108, 2-[1-(2-methyl-1-phenylpropyl)imidazol-4-yl]pyridine-4-carboxylic acid] |
| – | 100 to 1000 nM | ≤ 100 nM | ≤ 100 nM | ≤ 100 nM | ≤ 100 nM | CCC(c1ccccc1)n1cnc(-c2cc(C(=O)O)ccn2)c1 (stereo not shown) [Example 107, 2-[1-(1-phenylpropyl)imidazol-4-yl]pyridine-4-carboxylic acid] |
| – | 1000 to 10000 nM | ≤ 100 nM | ≤ 100 nM | 100 to 1000 nM | > 10000 nM | Clc1ccccc1Cn1cnc(-c2cc(-c3nn[nH]n3)ccn2)c1 [Example 129, 2-[1-[(2-chlorophenyl)methyl]imidazol-4-yl]-4-(2H-tetrazol-5-yl)pyridine] |
| – | 100 to 1000 nM | ≤ 100 nM | ≤ 100 nM | ≤ 100 nM | 100 to 1000 nM | CN(CCn1cnc(-c2cc(C(=O)O)ccn2)c1)c1ccc(Cl)cc1 [Example 87, 2-[1-[2-(4-chloro-N-methylanilino)ethyl]imidazol-4-yl]pyridine-4-carboxylic acid] |
| – | 1000 to 10000 nM | 100 to 1000 nM | ≤ 100 nM | 100 to 1000 nM | > 10000 nM | CC(C)C(c1ccccc1)n1cnc(-c2cc(-c3nn[nH]n3)ccn2)c1 (stereo not shown) [Example 145, 2-[1-(2-methyl-1-phenylpropyl)imidazol-4-yl]-4-(2H-tetrazol-5-yl)pyridine] |
| – | 100 to 1000 nM | ≤ 100 nM | ≤ 100 nM | ≤ 100 nM | ≤ 100 nM | O=C(O)c1ccnc(-c2cn(CC3CCCc4ccccc43)cn2)c1 (stereo not shown) [Example 116, 2-[1-(1,2,3,4-tetrahydronaphthalen-1-ylmethyl)imidazol-4-yl]pyridine-4-carboxylic acid] |
| – | 1000 to 10000 nM | ≤ 100 nM | ≤ 100 nM | 100 to 1000 nM | > 10000 nM | Cn1cnc(-c2cc(-c3nn[nH]n3)ccn2)c1-c1ccc(F)cc1OCC1CC1 [Example 150, 2-[5-[2-(cyclopropylmethoxy)-4-fluorophenyl]-1-methylimidazol-4-yl]-4-(2H-tetrazol-5-yl)pyridine] |
| – | 1000 to 10000 nM | ≤ 100 nM | ≤ 100 nM | 100 to 1000 nM | > 10000 nM | FC(F)(F)c1ccccc1CCn1cnc(-c2cc(-c3nn[nH]n3)ccn2)c1 [Example 140, 4-(2H-tetrazol-5-yl)-2-[1-[2-[2-(trifluoromethyl)phenyl]ethyl]imidazol-4-yl]pyridine] |
| – | 100 to 1000 nM | ≤ 100 nM | ≤ 100 nM | ≤ 100 nM | ≤ 100 nM | O=C(O)c1ccnc(-c2cn(CCN3CCCc4cc(F)ccc43)cn2)c1 [Example 90, 2-[1-[2-(6-fluoro-3,4-dihydro-2H-quinolin-1-yl)ethyl]imidazol-4-yl]pyridine-4-carboxylic acid] |
| – | 1000 to 10000 nM | ≤ 100 nM | ≤ 100 nM | 100 to 1000 nM | > 10000 nM | CCC(c1ccccc1)n1cnc(-c2cc(-c3nn[nH]n3)ccn2)c1 (stereo not shown) [Example 144, 2-[1-(1-phenylpropyl)imidazol-4-yl]-4-(2H-tetrazol-5-yl)pyridine] |
